In PubChem BioAssay AID1985 (Southern Research Specialized Biocontainment Screening …, 2009):
“And” between values parts separate entries of the source, which are not always exact repeats. Equal entries are not always repeated.

These compounds were tested on S. Typhi PhoP-promoter GFP reporter, fluorescence, 4 h (assay: modified counter assay using GFP fluorescence, PhoP regulon inhibitor project, dose response (AID 1985)).

Compound | IC50
CCCCCCCCCn1c2c(c(=N)c3c1CCC3)CCC2 | 36.7 µM
N#C/C(=C\c1ccc[nH]1)C(=O)NC1CC1 | 63.7 µM
Nc1nonc1C(=O)NCCN=Cc1cc(Cc2ccccc2)cc(Br)c1O | 83.3 µM
CCOC(=O)c1c(-c2ccccc2)oc2ccc(OCC(O)CNCCN(C)C)cc12 (configuration not stated) | 80.2 µM
CCN1/C(=C/c2cc[n+](C)cc2)C=Cc2cc(C)ccc21 | 78.6 µM
Cc1nc2ccccn2c1C(=O)N/N=C/c1ccc([N+](=O)[O-])o1 | 33.5 µM
CCOC(=O)c1c(N)sc(C(=O)Nc2ccc3c(c2)OCO3)c1C | 137 µM
CCCCn1c(=N)n(CC(=O)c2ccc(Br)s2)c2ccccc21 | 78.7 µM
CC(=O)NC(c1cccs1)c1cc([N+](=O)[O-])c2cccnc2c1O (configuration not stated) | 31.3 µM
COc1cccc(/C=N/NC(=O)c2ccoc2C)c1O | 88.1 µM
Cc1ccc2sc(N(CCCN(C)C)C(=O)c3ccc(Br)s3)nc2c1C | 120 µM
O=C(N/N=C/c1ccc([N+](=O)[O-])s1)C(O)c1ccccc1 (configuration not stated) | 33.4 µM
O=C(CNC(=O)c1ccccc1)N/N=C/c1ccc([N+](=O)[O-])s1 | 19.5 µM
O=c1oc2ccccc2nc1/C=C(\O)c1ccccc1 | 23.9 µM
c1ccc2c(c1)CSc1sccc1C2=C1CCNCC1 | 106 µM
NC1CCN(c2nc3c(cc2F)c(=O)c(C(=O)O)cn3-c2ccc(F)cc2F)C1 (configuration not stated) | < 0.23 µM
CCCCCCCCCCOC(=O)Cn1c(COc2ccc(C)cc2)[n+](C)c2ccccc21 | 16.6 µM
Cc1ccc(-c2csc(N=C(N)N)n2)c(C)c1 | 64.8 µM
CN(C)C1C(=O)C(C(N)=O)=C(O)C2(O)C(=O)C3=C(O)c4c(O)cccc4C(C)(O)C3CC12 (configuration not stated) | 2.08 µM

Compound | IC50
Nc1ncncc1-c1ccc([N+](=O)[O-])cc1 | 67.4 µM
C/C(Cn1nnc([N+](=O)[O-])n1)=N\NC(=O)c1ccccc1 | 149 µM
CS(=O)(=O)c1ccc([C@@H](O)[C@@H](CO)NC(=O)C(Cl)Cl)cc1 | 19.7 µM
CCN1CCCC1CNC(=O)C1CCN(Cc2nc(-c3cccc(Br)c3)oc2C)CC1 (configuration not stated) | 143 µM
O=C1C=CC(=O)N1CCCCCCN1C(=O)C=CC1=O | 112 µM
CN1CCN(c2nc3cc(C(F)(F)F)ccc3n3cccc23)CC1 | 101 µM
CN1CCN(CCCN2c3ccccc3Sc3ccc(Cl)cc32)CC1 | 132 µM and 79.2 µM
Cc1c(N2C(=O)/C(=C3\C(=O)N(CC(=O)O)c4ccccc43)SC2=S)c(=O)n(-c2ccccc2)n1C | 91.6 µM
O=C(CSc1ccccn1)Nc1nonc1[N+](=O)[O-] | 43.5 µM
Cc1cc(/C=C\c2ccc3cc(N(C)C)ccc3[n+]2C)c(C)n1-c1ccccc1 | 32 µM
CCCCCCCSc1cc(OC)c(CCN(C)C)cc1OC | 83.5 µM
Cc1ccc(C[n+]2c(-c3ccc(C)cc3)cc(-c3ccc(C)cc3)cc2-c2ccc(C)cc2)cc1 | 15.6 µM
CC1=NOC(=O)/C1=C/c1ccc(O)cc1 | 117 µM
O=C1C(O)=C(O)C(=O)c2ccccc21 | 88.8 µM
Cc1cc(C2CCCCC2)n(O)c(=O)c1 | 20.9 µM
CC1(C)CC(=O)c2c(nc3ccccc3c2N)C1 | 143 µM
Cc1ccsc1/C=N/Nc1ccc(C(=O)O)cc1 | 94.2 µM
Nc1nc(Nc2ccc(Cl)cc2)nc2ccccc12 | 33 µM
OC(CN1CCCCC1)Cn1c2ccccc2c2cc(Br)ccc21 (configuration not stated) | 81.9 µM

Compound | IC50
Nc1[nH]ncc1-c1ccccc1 | 31.9 µM
O=C(NC(=S)NNC(=O)c1cnccn1)c1ccc(F)cc1 | 25.1 µM
CCN1CCN(CCNC(=O)c2ccc3c(c2)N(Cc2ccc(F)cc2)C(=O)/C(=C/c2ccccc2)S3)CC1 | 125 µM
O=[N+]([O-])c1cc([N+](=O)[O-])c2cccnc2c1Oc1ccccc1O | 88 µM
OC1CCCN(Cc2ccc3ccc4cccc5ccc2c3c45)C1 (configuration not stated) | 118 µM
C=CCNc1ncnc2c1[nH]c1ccc(Cl)cc12 | 49.2 µM
CN1CCN(c2c(F)cc3c(=O)c(C(=O)O)cn4c3c2SCC4)CC1 | 3.16 µM and 3.49 µM
N/C(=N\OS(=O)(=O)c1ccc2ccccc2c1)c1cccnc1 | 14.2 µM
CCCCCCCC(=O)N/N=C/c1ccc([N+](=O)[O-])o1 | 30.2 µM
Cc1ccc(N/C(=C\C(=O)c2ccccc2)C(=O)O)cc1 | 17.3 µM
CNCCCN1c2ccccc2CCc2ccccc21 | 143 µM
CN1CCN(C2=Cc3ccccc3Sc3cc(F)c(Cl)cc32)CC1 | 106 µM
Clc1cc(Br)ccc1OCCCNCc1ccccc1 | 45.5 µM
CCCOc1ccc(S(=O)(=O)n2cc(F)c(=O)[nH]c2=O)cc1 | 42.2 µM
O=C(N/N=C/c1cc(Cl)ccc1O)c1ccncc1 | 22 µM
CNC[C@H](Cc1ccccc1)NC[C@@H](Cc1cccc2ccccc12)NCCc1ccc(C)cc1 | 19.6 µM
Fc1ccc([C@@H]2CCNC[C@H]2COc2ccc3c(c2)OCO3)cc1 | 77.5 µM
O=C(NC(=S)NNC(=O)c1ccccc1O)c1ccco1 | 23.8 µM
CCCCCOc1ccc(C)cc1CN(CCCl)CCCl | 138 µM
